The target in one test is T1, HIF-1α (Homo sapiens, UniProt Q16665).
T1 construct: endogenous in cells; host or cells: ARPE-19 (ATCC CRL-2302)
Briefly: Analysis of HIF-1α protein expression (Western blot) in ARPE-19 cells under mixed hypoxic condition. The test is classed as cell-based. The note with it: mixed hypoxic condition (1% oxygen + CoCl2) for 1 hour, concentration range at which HIF-1α expression is reduced by 50% vs untreated control, read-out: IC50 HIF-1α Hypoxia (1 hour). As for the experimental part:
(§1) ARPE-19 cells (Human retinal pigment epithelial cells, ATCC CRL-2302) were cultured in DMEM/F12 (LM002-08, Welgene) medium containing 10% fetal bovine serum (FBS, 16000-044, Gibco) in an incubator at 37°C with 5% carbon dioxide. When the cells grew sufficiently, they were cultured in experimental culture dishes for protein isolation and medium supernatant acquisition.
(§2) Cells were detached from the culture dish using TrypLE™ Express (Gibco). After centrifugation at 1000 rpm for 3 minutes, the supernatant was removed. The cells were counted and seeded into new culture dishes. Normoxic conditions were maintained by culturing the cells in a 37°C incubator with 5% carbon dioxide, and hypoxic conditions were maintained by culturing the cells in a hypoxic incubator with 1% oxygen, 5% carbon dioxide, and 94% nitrogen gas.
In a disease of macular degeneration, hypoxia is a very important condition, and since the expression of downstream genes is regulated by HIF-1α, a transcription factor that is stabilized in hypoxic conditions, the following experiment was conducted to confirm this.
Mixed hypoxic condition was used for HIF-1α stability experiments, in which hypoxia was induced with 1% oxygen and the stability of HIF-1α was enhanced by treatment with cobalt chloride (CoCl2).
The compounds of each Example were diluted to 0.1 nM, 1 nM, 3 nM, 10 nM, 30 nM, 100 nM, 300 nM, 1 µM, and 10 µM in DMEM/F12 medium without fetal bovine serum, pretreated for 16 hours or 2 hours, and cultured for 1 hour or 24 hours in a mixed hypoxic condition. The cell medium was discarded, and protein lysates were obtained by rapidly treating with protein lysis buffer (RIPA Lysis and Extraction buffer, Thermo Fisher Scientific). LDS (4X Bolt ™ LDS Sample buffer) and reducing agent (10X Bolt ™ Sample Reducing Agent) were added together to the protein lysate, and heated at 70°C for 10 minutes. The lysate was separated by electrophoresis on a 4-12% Bis-Tris gel, transferred to a PVDF membrane, and blocked with 3% BSA (Albumin, Bovine, Fraction V, MPbio). The membrane was incubated overnight at 4°C with a mixture of anti-HIF-1α (ab179483, abcam) and anti-b-actin (MA515739, Invitrogen) antibodies at a ratio of 1:4000. The following day, the membrane was treated with a peroxidase-conjugated secondary antibody for 1 hour at room temperature, and the target protein was expressed using an ECL solution (Clarity ™ Western ECL substrate, Bio-rad) and quantified.
Based on the results of the expression level of HIF-1α in cells treated with compounds diluted from 10 µM to 0.1 nM, the concentration range of the compound at which the expression level of HIF-1α was reduced by 50% or less compared to the untreated control group was derived.

Another test has as its system VEGF. Nature of the test: Evaluation of VEGF protein secretion level (Human VEGF ELISA) in ARPE-19 cell medium under hypoxic conditions. The test is classed as cell-based. As for the experimental part:
as §1, §2
The expression of the downstream gene, angiogenesis inducer VEGF, is regulated by HIF-1α, a major transcription factor under hypoxic conditions, and the level of secreted VEGF protein can be quantitatively confirmed through ELISA (Enzyme Linked Immunosorbent Assay, Human VEGF Quantikine ELISA Kit, R&D systems). For this purpose, the following experiment was conducted.
The compounds of each Example were diluted to 0.1 nM, 1 nM, 3 nM, 10 nM, 30 nM, 100 nM, 300 nM, 1 µM and 10 µM in DMEM/F12 medium containing 1% fetal bovine serum, pretreated for 2 hours, and cultured for 24 hours under hypoxic conditions to obtain the cell medium supernatant. The supernatant was centrifuged at 1000 rpm for 3 minutes, and a specific amount was treated with a VEGF ELISA assay kit and the absorbance value was measured at 450 nm to quantitatively confirm the level of VEGF protein (see Table 1 below).
Based on the results of secreted VEGF protein expression levels in cell media treated with compounds diluted at concentrations ranging from 10 µM to 0.1 nM, the concentration range of the compound at which the secreted VEGF protein level was reduced by 50% or less compared to the untreated control group was derived.

Where [1] appears, read: ARPE-19 cells, pretreated 2 hours, 24 hours hypoxic conditions, secreted VEGF in medium supernatant by ELISA, concentration range reducing VEGF by 50% vs untreated control, read-out: IC50 VEGF.

Where two headings read alike, the source gives them in different places.

T1 sequence (Q16665 whole entry): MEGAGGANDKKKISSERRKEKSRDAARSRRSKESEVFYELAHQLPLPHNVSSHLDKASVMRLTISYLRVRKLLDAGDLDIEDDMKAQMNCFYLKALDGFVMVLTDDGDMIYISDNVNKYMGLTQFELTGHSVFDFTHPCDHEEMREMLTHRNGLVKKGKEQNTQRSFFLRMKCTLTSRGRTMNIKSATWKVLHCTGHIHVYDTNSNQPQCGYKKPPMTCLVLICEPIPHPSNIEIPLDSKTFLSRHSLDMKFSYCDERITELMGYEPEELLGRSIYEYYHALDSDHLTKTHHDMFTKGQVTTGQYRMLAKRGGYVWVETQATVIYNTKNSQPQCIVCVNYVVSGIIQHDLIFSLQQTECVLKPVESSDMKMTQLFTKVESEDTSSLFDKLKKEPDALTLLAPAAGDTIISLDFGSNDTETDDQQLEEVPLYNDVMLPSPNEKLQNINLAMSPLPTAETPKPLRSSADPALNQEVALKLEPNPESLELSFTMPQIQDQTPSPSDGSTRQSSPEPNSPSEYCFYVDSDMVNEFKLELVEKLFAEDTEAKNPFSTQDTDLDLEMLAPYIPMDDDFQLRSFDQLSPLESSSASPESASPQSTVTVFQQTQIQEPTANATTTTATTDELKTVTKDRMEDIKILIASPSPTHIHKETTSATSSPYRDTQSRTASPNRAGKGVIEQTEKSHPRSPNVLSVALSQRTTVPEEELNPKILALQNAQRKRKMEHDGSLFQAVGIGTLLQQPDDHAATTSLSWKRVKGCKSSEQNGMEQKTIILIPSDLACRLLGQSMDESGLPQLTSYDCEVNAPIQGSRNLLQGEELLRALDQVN

Regarding `O=C(NCc1cccc(F)c1)c1ncnc2nc(C3CCCC3)[nH]c12` [Example 13, 8-Cyclopentyl-N-(3-fluorobenzyl)-7H-purine-6-carboxamide], the DC50 at HIF-1α is less than 100 nM. Also, the IC50 in the test with VEGF (setting [1]) fell in the range of 100 to 1000 nM.

For the compound `O=C(NCc1cc(F)cc(Nc2ccccc2)c1)c1ncnc2nc(C3CCCC3)[nH]c12` [Example 15, 8-Cyclopentyl-N-(3-fluoro-5-(phenylamino)benzyl)-7H-purine-6-carboxamide], on HIF-1α, the DC50 is less than 100 nM. In addition, the IC50 in the test on VEGF (setting [1]) is 100 to 1000 nM.

Regarding `O=C(NCc1cc(F)cc(Nc2ccncc2)c1)c1ncnc2nc(C3CCCC3)[nH]c12` [Example 16, 8-Cyclopentyl-N-(3-fluoro-5-(pyridin-4-ylamino)benzyl)-7H-purine-6-carboxamide], at HIF-1α, the DC50 was less than 100 nM. For the same compound, the IC50 with VEGF (setting [1]) was 100 to 1000 nM.

As for `O=C(NCc1cc(F)cc(Nc2cccc(C(F)(F)F)c2)c1)c1ncnc2nc(C3CCCC3)[nH]c12` [Example 17, 8-Cyclopentyl-N-(3-fluoro-5-((3-(trifluoromethyl)phenyl)amino)benzyl)-7H-purine-6-carboxamide], at HIF-1α, the DC50 was less than 100 nM. Further, in the test on VEGF (setting [1]), the IC50 fell in the range of 100 to 1000 nM.

On to `CN(C)c1ccc(Nc2cc(F)cc(CNC(=O)c3ncnc4nc(C5CCCC5)[nH]c34)c2)cc1` [Example 18, 8-Cyclopentyl-N-(3-((4-(dimethylamino)phenyl)amino)-5-fluorobenzyl)-7H-purine-6-carboxamide], for which the DC50 on HIF-1α was less than 100 nM. The IC50 in the test on VEGF (setting [1]) was 100 to 1000 nM.

As for `CS(=O)(=O)c1ccc(Nc2cc(F)cc(CNC(=O)c3ncnc4nc(C5CCCC5)[nH]c34)c2)cc1` [Example 19, 8-Cyclopentyl-N-(3-fluoro-5-((4-(methylsulfonyl)phenyl)amino)benzyl)-7H-purine-6-carboxamide], the DC50 at HIF-1α was less than 100 nM. Besides, the IC50 with VEGF (setting [1]) is 100 to 1000 nM.

In the case of `O=C(NCc1cc(F)cc(Nc2ccc(Cl)cc2F)c1)c1ncnc2nc(C3CCCC3)[nH]c12` [Example 20, N-(3-((4-chloro-2-fluorophenyl)amino)-5-fluorobenzyl)-8-cyclopentyl-7H-purine-6-carboxamide], on HIF-1α, the DC50 was less than 100 nM. In the test on VEGF (setting [1]), the IC50 was 100 to 1000 nM.

On to `O=C(NCc1cc(F)cc(Nc2ccc(F)cc2)c1)c1ncnc2nc(C3CCCC3)[nH]c12` [Example 21, 8-Cyclopentyl-N-(3-fluoro-5-((4-fluorophenyl)amino)benzyl)-7H-purine-6-carboxamide], for which the DC50 on HIF-1α is less than 100 nM. Further, the IC50 with VEGF (setting [1]) fell in the range of 100 to 1000 nM.

In the case of `N#Cc1cccc(-n2cc(-c3cc(F)cc(CNC(=O)c4ncnc5nc(C6CCCC6)[nH]c45)c3)cn2)c1` [Example 23, N-(3-(1-(3-Cyanophenyl)-1H-pyrazol-4-yl)-5-fluorobenzyl)-8-cyclopentyl-7H-purine-6-carboxamide], the DC50 on HIF-1α was less than 100 nM. Further, in the test on VEGF (setting [1]), the IC50 lay within 100 to 1000 nM.

Take `CS(=O)(=O)c1ccc(Cn2cc(-c3cc(F)cc(CNC(=O)c4ncnc5nc(C6CCCC6)[nH]c45)c3)cn2)cc1` [Example 24, 8-Cyclopentyl-N-(3-fluoro-5-(1-(4-(methylsulfonyl)benzyl)-1H-pyrazol-4-yl)benzyl)-7H-purine-6-carboxamide]: the DC50 at HIF-1α is less than 100 nM. Also, the IC50 with VEGF (setting [1]) is 100 to 1000 nM.

Turning to `COc1ccc(-n2cc(-c3cc(F)cc(CNC(=O)c4ncnc5nc(C6CCCC6)[nH]c45)c3)cn2)cc1` [Example 25, 8-Cyclopentyl-N-(3-fluoro-5-(1-(4-methoxyphenyl)-1H-pyrazol-4-yl)benzyl)-7H-purine-6-carboxamide], the DC50 on HIF-1α was less than 100 nM. Further, in the test on VEGF (setting [1]), the IC50 lay in the range of 100 to 1000 nM.

Regarding `O=C(NCc1cc(F)cc(-c2cnn(-c3ccc(C(F)(F)F)cc3)c2)c1)c1ncnc2nc(C3CCCC3)[nH]c12` [Example 26, 8-Cyclopentyl-N-(3-fluoro-5-(1-(4-(trifluoromethyl)phenyl)-1H-pyrazol-4-yl)benzyl)-7H-purine-6-carboxamide], on HIF-1α, the DC50 was less than 100 nM. The IC50 in the test with VEGF (setting [1]) lay within 100 to 1000 nM.

Take `O=C(NCc1cc(F)cc(-c2cnn(-c3ccc(F)cc3)c2)c1)c1ncnc2nc(C3CCCC3)[nH]c12` [Example 27, 8-Cyclopentyl-N-(3-fluoro-5-(1-(4-fluorophenyl)-1H-pyrazol-4-yl)benzyl)-7H-purine-6-carboxamide]: the DC50 on HIF-1α is less than 100 nM. In addition, the IC50 with VEGF (setting [1]) lay within 100 to 1000 nM.

`CS(=O)(=O)c1ccc(-n2cc(-c3cc(F)cc(CNC(=O)c4ncnc5nc(C6CCCC6)[nH]c45)c3)cn2)cc1` [Example 28, 8-Cyclopentyl-N-(3-fluoro-5-(1-(4-(methylsulfonyl)phenyl)-1H-pyrazol-4-yl)benzyl)-7H-purine-6-carboxamide]: the DC50 at HIF-1α is less than 100 nM. Moreover, the IC50 in the test with VEGF (setting [1]) lay within 100 to 1000 nM.

As for `O=C(NCc1cc(F)cc(-c2cnn(Cc3cccc(C(F)(F)F)c3)c2)c1)c1ncnc2nc(C3CCCC3)[nH]c12` [Example 29, 8-Cyclopentyl-N-(3-fluoro-5-(1-(3-(trifluoromethyl)benzyl)-1H-pyrazol-4-yl)benzyl)-7H-purine-6-carboxamide], at HIF-1α, the DC50 is less than 100 nM. Besides, in the test with VEGF (setting [1]), the IC50 lay within 100 to 1000 nM.

As to `O=C(NCc1cc(F)cc(-c2cnn(-c3ccccn3)c2)c1)c1ncnc2nc(C3CCCC3)[nH]c12` [Example 30, 8-Cyclopentyl-N-(3-fluoro-5-(1-(pyridin-2-yl)-1H-pyrazol-4-yl)benzyl)-7H-purine-6-carboxamide], at HIF-1α, the DC50 is less than 100 nM. The IC50 with VEGF (setting [1]) fell in the range of 100 to 1000 nM.

Regarding `O=C(NCc1cc(F)cc(-c2cnn(-c3cccnc3)c2)c1)c1ncnc2nc(C3CCCC3)[nH]c12` [Example 31, 8-Cyclopentyl-N-(3-fluoro-5-(1-(pyridin-3-yl)-1H-pyrazol-4-yl)benzyl)-7H-purine-6-carboxamide], the DC50 on HIF-1α is less than 100 nM. Moreover, the IC50 in the test on VEGF (ARPE-19 cells, pretreated 2 hours, 24 hours hypoxic conditions, ELISA, read-out: concentration at which the secreted VEGF protein level was suppressed to less than 50%) is less than 100 nM; in the test on VEGF (setting [1]), less than 100 nM; with VEGF (Experimental Example 2 (HIF-1α Western blot), read-out: concentration at which the expression level of VEGF was suppressed to less than 50%) it was less than 100 nM.

For `O=C(NCc1cc(F)cc(-c2cnn(-c3cncnc3)c2)c1)c1ncnc2nc(C3CCCC3)[nH]c12` [Example 32, 8-Cyclopentyl-N-(3-fluoro-5-(1-(pyrimidin-5-yl)-1H-pyrazol-4-yl)benzyl)-7H-purine-6-carboxamide], the DC50 on HIF-1α is less than 100 nM. Further, the IC50 in the test with VEGF (setting [1]) was 100 to 1000 nM.

On to `COc1ccccc1Nc1cc(F)cc(CNC(=O)c2ncnc3nc(C4CCCC4)[nH]c23)c1` [Example 33, 8-Cyclopentyl-N-(3-fluoro-5-((2-methoxyphenyl)amino)benzyl)-7H-purine-6-carboxamide], for which, on HIF-1α, the DC50 is less than 100 nM. Moreover, the IC50 in the test with VEGF (setting [1]) was in the range of 100 to 1000 nM.

Take `COc1cccc(Nc2cc(F)cc(CNC(=O)c3ncnc4nc(C5CCCC5)[nH]c34)c2)c1` [Example 34, 8-Cyclopentyl-N-(3-fluoro-5-((3-methoxyphenyl)amino)benzyl)-7H-purine-6-carboxamide]: on HIF-1α, the DC50 is less than 100 nM. In addition, in the test with VEGF (setting [1]), the IC50 lay within 100 to 1000 nM.

`COc1ccc(Nc2cc(F)cc(CNC(=O)c3ncnc4nc(C5CCCC5)[nH]c34)c2)cc1` [Example 35, 8-Cyclopentyl-N-(3-fluoro-5-((4-methoxyphenyl)amino)benzyl)-7H-purine-6-carboxamide]: the DC50 at HIF-1α is less than 100 nM. The IC50 in the test with VEGF (setting [1]) was 100 to 1000 nM.

The record behind these values is patent EP4567035A1, “NOVEL COMPOUND AS HYPOXIA-INDUCIBLE FACTOR 1(HIF-1) INHIBITOR OR VASCULAR ENDOTHELIAL GROWTH FACTOR (VEGF) INHIBITOR, AND PHARMACEUTICAL COMPOSITION COMPRISING SAME” (Nextgen Bioscience Co., Ltd., priority 2022, dated 2024).
